Results taken from ChEMBL document CHEMBL3425465, “Synthesis, antimalarial and antitubercular activities of meridianin derivatives” (Eur J Med Chem, 2015).
Values after ≈ are worked out from the molar mass of the structure shown.

Legend:
Plasmodium falciparum [1] = experiment: Antiplasmodial activity against Plasmodium falciparum D6 infected in human RBC assessed as parasite growth inhibition measured as LDH activity after 72 hrs by plate reader analysis; assay type: functional, organism-based; details: Plasmodium falciparum, D6, 72 h
[2] = system: Mycobacterium tuberculosis; experiment: Antitubercular activity against Mycobacterium tuberculosis H37Rv assessed as […] inhibition after 7 days by broth microdilution assay; assay type: functional; details: 168 h
Plasmodium falciparum [3] = experiment: Antiplasmodial activity against Plasmodium falciparum W2 infected in human RBC assessed as parasite growth inhibition measured as LDH activity after 72 hrs by plate reader analysis; assay type: functional, organism-based; details: Plasmodium falciparum, W2, 72 h
[4] = Selectivity index, ratio of IC50 for pig LLC-PK1 cells to IC50 for Plasmodium falciparum D6
SK-MEL = experiment: Cytotoxicity against human SK-MEL cells assessed as cell growth inhibition after 48 hrs by neutral red assay; assay type: cell-based
[5] = Retention time of the compound by HPLC analysis; assay type: physicochemical
Vero = experiment: Cytotoxicity against African green monkey Vero cells assessed as cell growth inhibition after 48 hrs by neutral red assay; assay type: cell-based; details: Chlorocebus sabaeus
SK-OV-3 = experiment: Cytotoxicity against human SKOV3 cells assessed as cell growth inhibition after 48 hrs by neutral red assay; assay type: cell-based; details: SK-OV-3, 48 h
BT-549 = experiment: Cytotoxicity against human BT549 cells assessed as cell growth inhibition after 48 hrs by neutral red assay; assay type: cell-based; details: BT-549, 48 h
[6] = Selectivity index, ratio of IC50 for African green monkey VERO cells to IC50 for Plasmodium falciparum D6
[7] = Selectivity index, ratio of IC50 for African green monkey VERO cells to IC50 for Plasmodium falciparum W2
[8] = Selectivity index, ratio of IC50 for pig LLC-PK1 cells to IC50 for Plasmodium falciparum W2
LLC-PK1 = experiment: Cytotoxicity against pig LLC-PK1 cells assessed as cell growth inhibition after 48 hrs by neutral red assay; assay type: cell-based; details: Sus scrofa, LLC-PK1, 48 h
KB = experiment: Cytotoxicity against human KB cells assessed as cell growth inhibition after 48 hrs by neutral red assay; assay type: cell-based

| Compound | IC50 (Plasmodium falciparum [1]; read-out: IC50) [µM] | IC50 (Plasmodium falciparum [1]; read-out: pIC50 (converted)) [µM] | MIC90 [2] [µM] | IC50 (Plasmodium falciparum [3]; read-out: IC50) [µM] | IC50 (Plasmodium falciparum [3]; read-out: pIC50 (converted)) [µM] | Ratio IC50 [4] | IC50 (SK-MEL) [µM] | Retention_time [5] [min] | IC50 (Vero) [µM] | IC50 (SK-OV-3) [µM] | IC50 (BT-549) [µM] | Ratio IC50 [6] | Ratio IC50 [7] | Ratio IC50 [8] | IC50 (LLC-PK1) [µM] | IC50 (KB) [µM] |
| --- | --- | --- | --- | --- | --- | --- | --- | --- | --- | --- | --- | --- | --- | --- | --- | --- |
| N#Cc1ccc(S(=O)(=O)n2cc(-c3ccnc(N)n3)c3cc(Br)ccc32)cc1 | 10.3 | 10.3 | 70.6 (≈ 32.1 µg/mL) | 5.2 | 5.2 | >5.3 | > 55 | 7.09 | > 55 | > 55 | > 55 | >5.3 | >10.6 | >10.6 | > 55 | > 55 |
| Nc1nccc(-c2cn(S(=O)(=O)c3cccc(C(F)(F)F)c3)c3ccc(Br)cc23)n1 | 9.3 | 9.29 |  | 5.34 | 5.35 | >5.4 | > 50 | 8.61 | > 50 | > 50 | > 50 | >5.4 | >9.4 | >9.4 | > 50 | > 50 |
| Nc1nccc(-c2cn(S(=O)(=O)c3ccc(C(F)(F)F)cc3)c3ccc(Br)cc23)n1 | 8.92 | 8.91 |  | 9.41 | 9.42 | >5.6 | > 50 | 9.54 | > 50 | > 50 | > 50 | >5.6 | >5.3 | >5.3 | > 50 | > 50 |
| Nc1nccc(-c2cn(S(=O)(=O)c3ccc(C(F)(F)F)cc3[N+](=O)[O-])c3ccc(Br)cc23)n1 | 2.56 | 2.56 | 118 (≈ 64.2 µg/mL) | 3.41 | 3.41 | >18 | > 46 | 8.26 | > 46 | > 28 | > 46 | >18 | >13.5 | >13.5 | > 46 | > 46 |
| CC(=O)Nc1ccc(S(=O)(=O)n2cc(-c3ccnc(N)n3)c3cc(Br)ccc32)cc1 | 9.33 | 9.33 |  | 9.14 | 9.14 | >5.5 | > 51 | 6.95 | > 51 | > 51 | > 51 | >5.5 | >5.6 | >5.6 | > 51 | > 51 |
